Measurements published in the NIST ThermoML archive (doi:10.1007/s10765-005-5585-3).

Conditions: 101.33 kPa, Liquid; for mass density: UV imaging technique; for viscosity: oscillations around equilibria

[Ir] [iridium]
Conditions	mass density [kg/m3]	viscosity [mPa·s]
2300 K	19856	–
2350 K	19814	–
2373 K	–	8.47
2398 K	–	8.34
2400 K	19771	–
2423 K	–	8.21
2448 K	–	8.08
2450 K	19729	–
2473 K	–	7.97
2498 K	–	7.85
2500 K	19686	–
2523 K	–	7.74
2548 K	–	7.63
2550 K	19644	–
2573 K	–	7.53
2598 K	–	7.42
2600 K	19601	–
2623 K	–	7.33
2648 K	–	7.23
2650 K	19559	–
2673 K	–	7.14
2698 K	–	7.05
2700 K	19516	–
2723 K	–	6.97
2748 K	–	6.88
2750 K	19474	–
2773 K	–	6.8
2800 K	19431	–
2850 K	19389	–
2900 K	19346	–
2950 K	19304	–
3000 K	19261	–
